Assay results as given in US10246455B2, “Histone deacetylase inhibitors” (Taipei Medical University, priority 2014, dated 2019).
Where two headings read alike, the source gives them in different places.

Key:
[1] = system: HT-29 (colorectal carcinoma); assay: IC50 in human cancer cell lines (inhibiting HDAC): HT-29
[2] = system: PC3 prostate cancer cells; assay: Two dimensional cell growth inhibitory assay (MTT): PC3; conditions: Homo sapiens
Protocol: (§3) For the two dimensional assay, cancel cells in the logarithmic phase were cultured in complete medium in 96-well plates at 37° C. with 5% CO2 for overnight incubation, and treated with various concentrations of test compounds for three generative times. Cells were then incubated with a serum free medium containing 3-(4,5-dimethylthiazol-2-yl)-2,5-diphenyltetrazolium bromide (MTT) at a final concentration of 0.5 mg/mM for four hours. MTT was converted to formazan by metabolically viable cells. Formazan was then solublized in 50% DMF solution containing 20% SDS at 37° C. overnight. Absorbance was measured at 570 nm using a spectramax M5 microplate reader (Molecular Devices, UK).

[3] = system: HONE-1 (nasopharyngeal carcinoma); assay: IC50 in human cancer cell lines (inhibiting HDAC): HONE-1
[4] = system: LNCaP104-R1 prostate cancer cells; assay: Three dimensional cell growth inhibitory assay (cellular spheres, MTT): LNCaP104-R1; type: cell-based; conditions: Homo sapiens; 3D cellular sphere culture, LNCaP104-R1 (androgen-independent), 72 hours; read-out: MTT IC50 ± SD
Protocol: (§1) For the three dimensional assay, cells in the logarithmic phase were cultured in 50% Matrigel-containing complete medium in 96-well plates at 37° C. with 5% CO2 for five days incubation, and treated with appropriate concentrations of test compounds for three generative times. Images of spheroids were taken under a microscope, and spheroid cell survival was determined by MTT assays.
(§2) The cells (in the 2D culture) and the cellular spheres (in the 3D culture) were treated with test compounds for 72 hours, and then subjected to the MTT colorimetric assay. Each value represents the mean of three independent experiments. Cellular spheres formed in semi-solid and drug effect on cellular spheres were examined using phase-contrast light microscopy.

[5] = system: androgen-independent PC3 prostate cancer cells; assay: Cell cycle analysis; type: cell-based, human; conditions: for cell cycle arrest and apoptosis: androgen-independent PC3 prostate cancer cells
Protocol: More specifically, cells in the logarithmic phase were initially seeded at a density of 1×10^6 in 100 mm^2 dishes. After treatment with various concentrations of test compounds for the indicated times, cells were trypsinized, washed with PBS, and fixed in 70% ethanol. The fixed cells were then treated with 50 μg/mL RNase and stained with 50 μg/mL propidium iodide at room temperature for 20 minutes. The DNA content was determined by BD FACS Calibur flow cytometry system (BD Biosciences). For each analysis, 10,000 cells were counted, and the percentage of cells in each phase was calculated using ModFit LT software (Verity Software House, Inc.).

[6] = system: Du145 prostate cancer cells; assay: Two dimensional cell growth inhibitory assay (MTT): Du145; conditions: Homo sapiens, DU-145, 72 h, read-out: MTT IC50 ± SD
Protocol: as §3

[7] = system: human PC3 prostate cancer cells xenograft; assay: In vivo antitumor activity assay, PC3 xenograft
Text: The antitumor effect of the two test compounds were examined in mice xenografted with human PC3 prostate cancer cells or HCT116 colorectal cells.
Five million PC3 cells were subcutaneously inoculated into specific pathogen-free male athymic mice (strain BALB/cAnN.Cg-Foxn1nu/CrlNarl) from the National Laboratory Animal Center, Taiwan. Mice were subsequently fed under specific pathogen-free conditions and provided with sterile water and food. When the tumor volume reached 150 to 200 mm^3, mice were assigned to groups randomly and treated with vehicle control or Compound 7 or 5b at 25/50/100 mg/kg. The compound was administered once a day, 5 days/week for 2 weeks (n=6) by oral administration. Tumor volume and body weight change were measured twice a week. At the end of the experiments (day 25 after first dosing), animals were euthanized in a CO2-containing chamber, and the tumors were collected and fixed in formaldehyde. The terminal deoxynucleotidyl transferase-mediated dUTP nick end labeling assay (TUNEL) was conducted for apoptosis detection. Tumor tissue sections were analyzed using a FITC In Situ Cell death detection kit (Roche) and fluorescence microscopy. Tissue treated with DNase was used as the positive control. Green fluorescence labeled nucleus indicates the induction of DNA fragmentation.

[8] = system: LNCaP104-S prostate cancer cells; assay: Two dimensional cell growth inhibitory assay (MTT): LNCaP104-S; conditions: Homo sapiens, 72 h, read-out: MTT IC50 ± SD
Protocol: as §3

[9] = system: histone and α-tubulin acetylation in PC3 cells; assay: Western blot: acetylation in PC3 cells; type: cell-based, human; conditions: concentration-dependent
Protocol: More specifically, cells in the logarithmic phase were initially seeded at a density of 1×10^6 in 100 mm^2 dishes. […] Briefly, cells were lysed with the cell lysis reagent CelLytic™ M (Sigma-Aldrich) containing 1 mM DTT, 1 mM PMSF and protease inhibitors for whole-cell lysate preparation. Equal amounts of lysate (on a protein basis) were then differentiated using the SDS-PAGE, blotted on PVDF membranes, conjugated with various specific primary antibodies, and then probed with appropriate secondary antibodies. The immunoreactive bands were detected using the ECL method and visualized on Kodak Bio-MAX MR film.
Proteins from cells were extracted and subjected to the western blotting analysis. β-Actin was used as an internal control. The deacetylase enzyme assay was based on a homogeneous fluorescence release assay. […] After fluorophore from the deacetylated substrates, fluorescent signal was detected.

[10] = system: LNCaP104-R2 prostate cancer cells; assay: Two dimensional cell growth inhibitory assay (MTT): LNCaP104-R2; conditions: Homo sapiens, 72 h, read-out: MTT IC50 ± SD
Protocol: as §3

[11] = system: LNCaP104-R1 prostate cancer cells; assay: Two dimensional cell growth inhibitory assay (MTT): LNCaP104-R1; conditions: Homo sapiens, 72 h, read-out: MTT IC50 ± SD
Protocol: as §3

[12] = system: KB cell line (oral carcinoma); assay: IC50 in human cancer cell lines (inhibiting HDAC): KB
[13] = system: H460 (non-small-cell lung carcinoma); assay: IC50 in human cancer cell lines (inhibiting HDAC): H460
[14] = system: PC3 prostate cancer cells; assay: Three dimensional cell growth inhibitory assay (cellular spheres, MTT, microscopy): PC3; type: cell-based, human; conditions: for IC50: Homo sapiens
Protocol: as §1, §2
More specifically, cellular spheres formed in semi-solid and drug effect on cellular spheres were examined using phase-contrast light microscopy. 3D structures of cells were analyzed using 4× magnification, 10× magnification, and 20× magnification.

PC3 (prostate carcinoma) = assay: IC50 in human cancer cell lines (inhibiting HDAC): PC3
[15] = system: LNCaP104-S prostate cancer cells; assay: Three dimensional cell growth inhibitory assay (cellular spheres, MTT): LNCaP104-S; type: cell-based; conditions: Homo sapiens; 3D cellular sphere culture, LNCaP104-S (androgen-dependent), 72 hours; read-out: MTT IC50 ± SD
Protocol: as §1, §2

Work on `COc1ccc(S(=O)(=O)N2CCc3cc(/C=C/C(=O)NO)cnc32)cc1` [Compound 5b, (E)-N-hydroxy-3-(1-(4-methoxyphenylsulfonyl)-2,3-dihydro-1H-pyrrolo[2,3-b]pyridin-5-yl)acrylamide] yielded an IC50 ([1]; HT-29, read-out: IC50 ± SD against human cancer cell lines) of 85.4 ± 9.8 nM, an IC50 ([2]; 72 h, read-out: MTT IC50 ± SD) of 170 ± 40 nM and an IC50 ([2]; read-out: IC50 value 2D Culture) of 170 ± 40 nM. For the same compound, the IC50 ([3]; HONE1, read-out: IC50 ± SD against human cancer cell lines) was 447 ± 45.2 nM, the IC50 [4] was 150 to 625 nM and the p21 up-regulation [5] was “induced p21 up-regulation”. For the same compound, the “cell cycle arrest and apoptosis” value [5] was “induced cell cycle arrest and apoptosis”, the IC50 [6] was 90 ± 30 nM and the “inhibition of human PC3 xenograft growth” value ([7]; 50 mg/kg oral, day 29 after the first dosing) was “about 70%”. For the same compound, the “inhibition of human PC3 xenograft growth” value ([7]; 100 mg/kg oral) was “completely inhibited”, the tumor regression ([7]; PC3 xenograft, 100 mg/kg oral) was “achieved tumor regression from day 8 to day 29” and the IC50 [8] was 150 ± 30 nM. The “histone and α-tubulin acetylation” value [9] was “induced histone and α-tubulin acetylation”, the IC50 [10] was 180 ± 70 nM and the IC50 [11] was 100 ± 40 nM. It also gave an IC50 ([12]; Homo sapiens, read-out: IC50 ± SD against human cancer cell lines, KB, oral carcinoma) of 86.6 ± 17.1 nM, an IC50 ([13]; NCI-H460, read-out: IC50 ± SD against human cancer cell lines) of 112 ± 9.5 nM and an IC50 ([14]; 3D cellular sphere culture, PC3, 72 hours, read-out: MTT IC50 ± SD) of 410 ± 60 nM. For the same compound, the IC50 ([14]; Table 6, cell line not given, read-out: IC50 value 3D Culture) was 410 ± 60 nM, the IC50 (PC3 (prostate carcinoma); read-out: IC50 ± SD against human cancer cell lines) was 170 ± 40 nM and the IC50 [15] was 230 ± 30 nM.

For `O=C(/C=C/c1cccc(S(=O)(=O)n2ccc3cccnc32)c1)NO` [Compound 7, (E)-3-(3-(1H-Pyrrolo[2,3-b]pyridin-1-ylsulfonyl)phenyl)-N-hydroxyacrylamide], the IC50 ([1]; HT-29, read-out: IC50, inhibiting HDAC in human cancer cell lines) was 1240 ± 400 nM, the IC50 ([2]; read-out: 2D Culture) was 2990 ± 170 nM and the IC50 ([3]; HONE1, read-out: IC50, inhibiting HDAC in human cancer cell lines) was 1200 ± 310 nM. The IC50 [4] was 2450 ± 150 nM, the “cell cycle arrest and apoptosis” value [5] was “induced cell cycle arrest and apoptosis” and the IC50 [6] was 1220 ± 50 nM. For the same compound, the “inhibition of human PC3 xenograft growth” value ([7]; 25 mg/kg oral, day 25 after the first dosing) was “about 50%”, the “inhibition of human PC3 xenograft growth” value ([7]; 50 mg/kg oral, day 25 after the first dosing) was “about 50%” and the body weight change ([7]; PC3 xenograft mice, 25 and 50 mg/kg oral) was “without causing much body weight change”. For the same compound, the IC50 [8] was 1980 ± 100 nM, the “histone and α-tubulin acetylation” value [9] was “induced histone and α-tubulin acetylation” and the IC50 [10] was 2090 ± 110 nM. It also gave an IC50 [11] of 1150 ± 30 nM, an IC50 ([12]; read-out: IC50, inhibiting HDAC in human cancer cell lines, oral carcinoma) of 760 ± 230 nM and an IC50 ([13]; NCI-H460, read-out: IC50, inhibiting HDAC in human cancer cell lines) of 570 ± 10 nM. The “effect on spheroid structure of PC3 tumors” value ([14]; 3D culture, phase-contrast light microscopy) was “disrupted the spheroid structure of PC3 tumors in a concentration-dependent manner”, the IC50 ([14]; read-out: 3D Culture) was 6380 ± 160 nM and the “cytotoxic / anti-proliferative activity in 3D versus 2D culture” value ([14]; human prostate carcinoma cells, 2D and 3D culture) was “potent in both a 3D spheroid culture and a 2D culture”. The IC50 (PC3 (prostate carcinoma); read-out: IC50, inhibiting HDAC in human cancer cell lines) was 1630 ± 410 nM and the IC50 [15] was 3210 ± 150 nM.
